Results on ten compounds are retold here after patent publication US20240132477A1, “Benzimidazole Derivatives and Their Use As Inhibitors of ITK For The Treatment of Skin Disease” (PFIZER INC., priority 2020, published 2024).

Like-named read-outs stand apart in the source and are kept apart here.

Assay [1] addresses IL-2-Inducible T-Cell Kinase (ITK) (Homo sapiens (Human), UniProt Q08881). Kind of assay: ITK enzyme assay. The following applies: geometric mean of count n; ITK FL enzyme, BTK peptide substrate. Format: biochemical. The method, then:
IL-2-Inducible T-Cell Kinase (ITK) Activity, IC50 (uM)
ITK activity was determined by measuring the effect of a test compound in an ITK enzyme assay.
1.0 M HEPES Buffer pH 7.5 solution was prepared as follows: 238.3 g HEPES free acid (Sigma) and 800 mL of water were combined, and the mixture was stirred until complete dissolution. The pH was adjusted to 7.5 via titration with 5N NaOH and the volume adjusted to 1000 mL. The solution was filtered and sterilized.
ITK assay buffer was prepared as follows: 50 mL of HPLC-grade water was treated with 2 mL of 1.0 M HEPES Buffer, 500 μL of 2% Gelatin (Sigma), 1.0 mL of aqueous MgCl2 solution (1.0 M), and 1.0 mL of aqueous glutathione solution (0.5 M), and the solution was mixed. The solution was brought to 99 mL in a graduated cylinder by addition of water and sterilized through a 0.2 μm filter. 0.1 mL of Brij-35™ Surfact-AmpS™ Detergent Solution (10% w/v aqueous solution, ThermoFisher) and 1.0 mL of ATP (Teknova, 100 mM) were added and the solution was mixed.
Preparation of 1.33×ITK enzyme solution was as follows: 49.99 mL of ITK assay buffer was treated with 4.1 μL of ITK enzyme (ITK FL (N-Flag and C-His tagged, ˜72 kDa) Lake Pharma, 0.25 mg/ml in a buffer containing 25 mM Tris pH 7.8, 150 mM NaCl, 10% glycerol and 2 mM TCEP) and the mixture was gently agitated. The resulting solution was stored on ice. 30 Minutes prior to use, the enzyme solution was removed from ice and equilibrated to RT by incubation in a RT water bath.
Preparation of 4×ITK substrate solution was as follows: 50 mL of ITK assay buffer was treated with 100 μL of BTK peptide (China Peptide Company, 2 mM stock solution in DMSO). The tube was capped, mixed by gently inverting the tube, and then stored on ice. 30 Minutes prior to use, the substrate solution was removed from ice and equilibrated to RT by incubation in a RT water bath.
At the time of assay, 7.5 μL of the 1.33×ITK enzyme solution was added to plate wells containing 0.1 μL of varying concentrations of test compound in DMSO. The plate was incubated 30 min at RT. The plate wells were each treated with 2.5 uL of the 4×ITK substrate solution and the plate was sealed (TopSeal™, Perkin Elmer). The plate was spun at 1000 rpm for 30 sec and then incubated for 60 min at RT. The seal was removed, and each well was treated with 10 μL of Stop/Detect Buffer (20 mM HEPES pH 7.5, 0.01% gelatin, 1 nM LANCE PT66 (Perkin Elmer), 16.5 μg/ml Surelight APC (Perkin Elmer), 10 mM EDTA, 250 mM NaCl). The plate was again covered and was spun at 1000 rpm for 30 seconds. The plate was allowed to incubate overnight at RT and in a closed carrier to reduce dehydration. The seal was removed, and the fluorescence was read with a plate reader with […]. The concentrations and resulting effect values for the tested compound were plotted and the concentration of compound required for 50% effect (IC50) was determined with the four-parameter logistic dose response equation.

Assay [2] concerns IL-2 in supernatants from activated CD4+ human T-cells. Kind of assay: IL-2 inhibition in supernatants from activated CD4+ human T-cells (cisbio HTRF). Format: cell-based. The note with it: T-cell, read-out: IL-2 IC50. As to the method:
IL-2-Inhibition Activity, IC50 (uM)
IL-2 inhibition activity in supernatants from activated CD4+ human T-cells was determined by measuring the effect of a test compound on the activity using the cisbio HTRF™ technology.
Human CD4+ T cells were activated with CD3/CD28 for 3 days and expanded for an additional 4-6 days (7 to 9 days total). On day 0, frozen CD4+ T cells were thawed, treated with CD3/CD28 Dynabeads, and incubated at 37° C./5% CO2. On day 3, the beads were removed, and the cells were diluted to 5×10^5 cells/cm^2, placed in G-Rex10 flask, and incubated at 37° C./5% CO2. On day 7 to day 9 the cells were removed from the G-Rex flasks, counted and diluted back to 1×10^6 cells/ml in standard tissue culture flask.
The expanded CD4+ T-cells were centrifuged at 300×g for 10 minutes and resuspended to 0.5 million cells per ml (30,000 cells/well). 60 μl of CD4+ T cells were added per well to a 384 well plate containing 0.1 μL of varying concentrations of test compound in DMSO. The plates were incubated for 15 min at 37° C./5% CO2. 20 μl of diluted ImmunoCult™ (STEMCELL Technologies, 1:12.5 in T cell assay media) were added to all wells of the plate (1:50 final assay concentration). The plates were incubated for an additional 20 to 24 hrs at 37° C./5% CO2. The plates were centrifuged at 300×g for 10 minutes. 16 μL of supernatant was removed and combined with 4 μl of IL-2 HTRF Abs. (cisbio kit). Plates were incubated for 3 hours at RT and read with an EnVision plate reader at 665 nm and 615 nm wavelengths. The concentrations and resulting effect values for the tested compound were plotted and the concentration of compound required for 50% effect (IC50) was determined with the four-parameter logistic dose response equation.
(Time-resolved FRET reads energy transfer from a long-lived donor to a nearby acceptor.)

The target of assay [3] is Tropomyosin Receptor Kinase A (TRKA, NTRK1 enzyme) (Homo sapiens (Human), UniProt P04629). The assay can be described thus: TRKA (NTRK1) ThermoFisher Z'-LYTE assay. It is filed as biochemical. The note with it: read-out: TRKA % inhibition. As to the method: Tropomyosin Receptor Kinase a (TRKA) Activity, % Inhibition
Chain of Tropomyosin Receptor Kinase A (TRKA, NTRK1 enzyme) (P04629 33-796): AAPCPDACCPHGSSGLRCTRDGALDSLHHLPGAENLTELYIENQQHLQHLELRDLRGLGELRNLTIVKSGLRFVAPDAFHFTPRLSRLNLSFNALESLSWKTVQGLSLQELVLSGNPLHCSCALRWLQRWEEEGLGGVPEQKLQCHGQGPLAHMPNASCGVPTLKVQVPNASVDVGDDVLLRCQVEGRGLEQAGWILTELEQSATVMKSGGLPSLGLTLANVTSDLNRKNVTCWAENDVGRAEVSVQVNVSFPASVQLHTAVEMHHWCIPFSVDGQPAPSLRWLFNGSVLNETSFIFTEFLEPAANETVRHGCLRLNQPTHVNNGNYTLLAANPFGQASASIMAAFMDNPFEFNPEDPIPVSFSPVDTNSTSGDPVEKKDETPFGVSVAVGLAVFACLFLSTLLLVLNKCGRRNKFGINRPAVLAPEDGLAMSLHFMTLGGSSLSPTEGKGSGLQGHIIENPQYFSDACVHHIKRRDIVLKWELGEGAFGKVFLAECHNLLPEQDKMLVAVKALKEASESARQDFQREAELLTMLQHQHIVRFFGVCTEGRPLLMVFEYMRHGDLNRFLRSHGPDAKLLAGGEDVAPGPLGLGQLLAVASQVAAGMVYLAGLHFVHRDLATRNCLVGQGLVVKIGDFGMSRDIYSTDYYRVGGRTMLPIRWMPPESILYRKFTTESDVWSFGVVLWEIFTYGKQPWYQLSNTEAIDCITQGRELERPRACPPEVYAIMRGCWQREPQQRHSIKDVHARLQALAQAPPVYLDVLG
TRKA, also known as neurotrophic tyrosine kinase receptor type 1 (NTKR1) activity was determined by measuring the effect of a test compound on the activity against the NTRK1 enzyme using the ThermoFisher Z′-LYTE Assay fluorescence-based coupled enzyme format (www.thermofisher.com/selectscreen). Test compounds were screened at a fixed concentration of 1 uM and the % inhibition was determined compared to controls at a fixed ATP concentration of 1 mM. The resulting effect value for the tested compound was compared to the assay controls to determine the % inhibition (%). % Inhibition (%) values for compounds of the invention are presented in the Table that follows.

Where [4] appears, read: geometric mean of count n, activated CD4+ human T-cells, 20 to 24 hrs.
Setting [5] is: test compound 1 uM, ATP 1 mM, arithmetic mean of count n.

Chain of IL-2-Inducible T-Cell Kinase (ITK) (Q08881 whole entry): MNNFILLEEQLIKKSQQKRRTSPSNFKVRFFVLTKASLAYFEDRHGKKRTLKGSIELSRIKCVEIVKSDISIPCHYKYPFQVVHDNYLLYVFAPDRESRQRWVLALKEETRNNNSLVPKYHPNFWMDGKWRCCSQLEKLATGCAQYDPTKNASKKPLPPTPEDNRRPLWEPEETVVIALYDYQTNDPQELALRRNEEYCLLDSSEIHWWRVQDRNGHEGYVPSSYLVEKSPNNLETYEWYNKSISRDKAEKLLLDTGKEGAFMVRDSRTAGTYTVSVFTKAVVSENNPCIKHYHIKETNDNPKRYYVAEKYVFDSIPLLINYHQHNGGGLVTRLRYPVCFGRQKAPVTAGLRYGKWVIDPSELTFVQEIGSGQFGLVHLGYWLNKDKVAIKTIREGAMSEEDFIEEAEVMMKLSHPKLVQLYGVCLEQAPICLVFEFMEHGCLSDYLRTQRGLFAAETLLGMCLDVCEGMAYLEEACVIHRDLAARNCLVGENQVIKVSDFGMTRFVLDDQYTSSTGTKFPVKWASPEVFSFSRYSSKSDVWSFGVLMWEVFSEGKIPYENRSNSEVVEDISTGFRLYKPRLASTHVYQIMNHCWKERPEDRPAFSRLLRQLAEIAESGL

As for `CC(=O)Nc1cc2nc(-c3n[nH]c4c3C[C@@H]3C[C@]3(C)C4)[nH]c2cc1C` [Example 4, N-(6-methyl-2-((4aS,5aR)-5a-methyl-1,4,4a,5,5a,6-hexahydrocyclopropa[f]indazol-3-yl)-1H-benzo[d]imidazol-5-yl)acetamide], the figures for the IC50 in assay [1] and in assay [2] (setting [4]) were 71 nM and 391 nM, respectively. Also, the inhibition at 1 µM in assay [3] (setting [5]) came to 105%.

Regarding `COc1cc2[nH]c(-c3n[nH]c4c3C[C@@H]3C[C@]3(C)C4)nc2cc1N(C)C(C)=O` [Example 6, N-(6-methoxy-2-((4aS,5aR)-5a-methyl-1,4,4a,5,5a,6-hexahydrocyclopropa[f]indazol-3-yl)-1H-benzo[d]imidazol-5-yl)-N-methylacetamide], the IC50 was determined as 37 nM in assay [1] and 173 nM in assay [2] (setting [4]). Besides, the inhibition at 1 µM in assay [3] (setting [5]) stood at 103%.

In the case of `COCCOc1cc2[nH]c(-c3n[nH]c4c3C[C@@H]3C[C@]3(C)C4)nc2cc1N(C)C(C)=O` [Example 7, N-(6-(2-methoxyethoxy)-2-((4aS,5aR)-5a-methyl-1,4,4a,5,5a,6-hexahydrocyclopropa[f]indazol-3-yl)-1H-benzo[d]imidazol-5-yl)-N-methylacetamide], the IC50 came to 13 nM in assay [1] and 595 nM in assay [2] (setting [4]). Further, the inhibition at 1 µM in assay [3] (setting [5]) is 105%.

Regarding `CC(=O)N(C)c1cc2nc(-c3n[nH]c4c3C[C@@H]3C[C@]3(C)C4)[nH]c2cc1C` [Example 17, N-Methyl-N-(6-methyl-2-((4aS,5aR)-5a-methyl-1,4,4a,5,5a,6-hexahydrocyclopropa[f]indazol-3-yl)-1H-benzo[d]imidazol-5-yl)acetamide], the IC50 stood at 10 nM in assay [1] and 81 nM in assay [2] (setting [4]). The inhibition at 1 µM in assay [3] (setting [5]) came to 100%.

Consider `Cc1cc2[nH]c(-c3n[nH]c4c3C[C@@H]3C[C@]3(C)C4)nc2cc1N(C)C(=O)[C@H]1CCCO1` [Example 23, (R)-N-Methyl-N-(5-methyl-2-((4aS,5aR)-5a-methyl-1,4,4a,5,5a,6-hexahydrocyclopropa[f]indazol-3-yl)-1H-benzo[d]imidazol-6-yl)tetrahydrofuran-2-carboxamide], for which the IC50 in assay [1] was 10 nM; in assay [2] (setting [4]), 89 nM. Besides, in assay [3] (setting [5]), the inhibition at 1 µM was 97%.

Consider `Cc1cc2[nH]c(-c3n[nH]c4c3C[C@@H]3C[C@]3(C)C4)nc2cc1N(C)C(=O)[C@@H]1CCOC1` [Example 29, (R)-N-Methyl-N-(6-methyl-2-((4aS,5aR)-5a-methyl-1,4,4a,5,5a,6-hexahydrocyclopropa[f]indazol-3-yl)-1H-benzo[d]imidazol-5-yl)tetrahydrofuran-3-carboxamide], for which the IC50 in assay [1] was determined as 6 nM; in assay [2] (setting [4]) it was 61 nM. Further, the inhibition at 1 µM in assay [3] (setting [5]) turned out to be 97%.

Turning to `Cc1cc2[nH]c(-c3n[nH]c4c3C[C@@H]3C[C@]3(C)C4)nc2cc1N(C)C(=O)CN(C)C(=O)C(C)C` [Example 30, N-Methyl-N-(2-(methyl(6-methyl-2-((4aS,5aR)-5a-methyl-1,4,4a,5,5a,6-hexahydrocyclopropa[f]indazol-3-yl)-1H-benzo[d]imidazol-5-yl)amino)-2-oxoethyl)isobutyramide], the IC50 in assay [1] is 3 nM; in assay [2] (Homo sapiens), 51 nM. The inhibition at 1 µM in assay [3] amounted to 98%.

Consider `Cc1cc2[nH]c(-c3n[nH]c4c3C[C@@H]3C[C@]3(C)C4)nc2cc1N(C)C(=O)CN1CCCC1=O` [Example 31, N-Methyl-N-(6-methyl-2-((4aS,5aR)-5a-methyl-1,4,4a,5,5a,6-hexahydrocyclopropa[f]indazol-3-yl)-1H-benzo[d]imidazol-5-yl)-2-(2-oxopyrrolidin-1-yl)acetamide], for which the IC50 in assay [1] amounted to 3 nM; in assay [2] (setting [4]) it was 69 nM. Moreover, in assay [3] (setting [5]), the inhibition at 1 µM worked out at 98%.

As to `CC(=O)N(CC(=O)N(C)c1cc2nc(-c3n[nH]c4c3C[C@@H]3C[C@]3(C)C4)[nH]c2cc1C)C(C)C` [Example 35, 2-(N-Isopropylacetamido)-N-methyl-N-(6-methyl-2-((4aS,5aR)-5a-methyl-1,4,4a,5,5a,6-hexahydrocyclopropa[f]indazol-3-yl)-1H-benzo[d]imidazol-5-yl)acetamide], the IC50 in assay [1] worked out at 5 nM; in assay [2] (setting [4]) it was 62 nM. Moreover, the inhibition at 1 µM in assay [3] (setting [5]) came to 97%.

For the compound `CCOCC(=O)N(C)c1cc2nc(-c3n[nH]c4c3C[C@@H]3C[C@]3(C)C4)[nH]c2cc1C` [Example 38, 2-Ethoxy-N-methyl-N-(6-methyl-2-((4aS,5aR)-5a-methyl-1,4,4a,5,5a,6-hexahydrocyclopropa[f]indazol-3-yl)-1H-benzo[d]imidazol-5-yl)acetamide], the IC50 in assay [1] turned out to be 7 nM; in assay [2] (setting [4]), 74 nM. For the same compound, the inhibition at 1 µM in assay [3] (setting [5]) amounted to 97%.

As usually defined, the IC50 is the concentration at which inhibition is half-maximal. As usually defined, the inhibition is the drop in the measured response relative to a control, in per cent.
